From BindingDB's records for patent US10774052 (Celgene CAR LLC; Sanofi, 2020) come the findings set out here.

Bounds are passed on as bounds.

The target in the assay is Fibroblast growth factor receptor 4 (Homo sapiens, UniProt P22455). As to the kind of experiment: Omnia Assay Protocol for Potency Assessment Against (method a).
Sequence of Fibroblast growth factor receptor 4 (P22455 whole entry): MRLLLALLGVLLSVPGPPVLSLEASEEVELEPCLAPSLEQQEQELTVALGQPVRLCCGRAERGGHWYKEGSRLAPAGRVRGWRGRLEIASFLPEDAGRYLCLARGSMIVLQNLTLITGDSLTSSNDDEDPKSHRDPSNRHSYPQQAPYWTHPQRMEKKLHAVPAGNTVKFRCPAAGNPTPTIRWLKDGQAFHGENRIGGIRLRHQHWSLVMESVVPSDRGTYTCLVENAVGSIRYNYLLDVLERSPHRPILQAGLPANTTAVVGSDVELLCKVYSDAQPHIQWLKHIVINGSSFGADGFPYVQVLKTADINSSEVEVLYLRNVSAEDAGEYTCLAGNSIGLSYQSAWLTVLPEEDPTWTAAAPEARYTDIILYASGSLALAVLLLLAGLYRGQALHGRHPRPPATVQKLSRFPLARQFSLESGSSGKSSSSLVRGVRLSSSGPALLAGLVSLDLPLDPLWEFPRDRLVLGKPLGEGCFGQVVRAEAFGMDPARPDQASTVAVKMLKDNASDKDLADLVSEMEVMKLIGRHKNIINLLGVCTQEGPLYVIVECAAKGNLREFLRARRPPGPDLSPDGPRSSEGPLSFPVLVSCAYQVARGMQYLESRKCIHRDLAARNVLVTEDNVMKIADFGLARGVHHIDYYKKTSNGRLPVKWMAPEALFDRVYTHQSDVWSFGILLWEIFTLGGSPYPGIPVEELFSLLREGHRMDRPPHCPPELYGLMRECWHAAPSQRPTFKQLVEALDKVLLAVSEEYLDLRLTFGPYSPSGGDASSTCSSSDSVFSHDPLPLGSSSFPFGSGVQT

Method: A solution of 1.4×ATP (AS001A) and 5× Tyr-Sox conjugated peptide substrate (KNZ3101) were prepared in 1× kinase reaction buffer consisting of 20 mM Tris, pH 7.5, 5 mM MgCl2, 1 mM EGTA, 5 mM β-glycerophosphate, 5% glycerol (10× stock, KB002A) and 0.2 mM DTT (DS001A). […] The serially diluted compounds were prepared on a Tecan EV0100. A second addition of 10 μl of Tyr-Sox FGFR4 substrate was added to each well and the kinase reactions were started with the addition of 35 μL of 1.4×ATP. The reactions were monitored every 71 seconds for 240 minutes at λex360/λem485 in a Synergy plate reader from BioTek (Winooski, Vt.).

For `C=CC(=O)Nc1cc(C2=CCN(CC)CC2)ccc1Nc1ncc2c(n1)N(CC)C(=O)N(c1cc(OC)cc(OC)c1)C2` [US10774052, Compound I-56], the IC50 is < 100 nM.

As usually defined, the IC50 is the concentration needed to halve the response being measured. Lower therefore signals greater potency.
